Test results as given in patent US20100267712A1, “ISOINDOLINE COMPOUNDS FOR THE TREATMENT OF SPINAL MUSCULAR ATROPHY AND OTHER USES” (The United States of America, as represented by the …, priority 2007, published 2010).

test system: SMN2-linked luciferase-reporter gene construct; test: SMN Splice Reporter Assay (SMN2-linked luciferase reporter); type: cell-based; settings: cervical carcinoma cell lines, SMN2 splice luciferase reporter
Summary of the method: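 Cervical carcinoma cells carrying an SMN2-luciferase splicing reporter, in-frame only with exon 7 inclusion, were treated with compound. Luciferase activity reported as fold increase over untreated transformed cells, with EC50 derived.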

Structure (SMILES) | EC50 [nM]
Cn1ccc2cc(N3Cc4ccc(Cl)cc4C3=O)ccc21 [Example 120599] | 61
COc1ccc2c(c1)C(=O)N(c1ccc3c(c1)N(C)CCO3)C2 [Example 119867] | 117
COc1ccc2c(c1)C(=O)N(c1ccc3c(c1)OCCO3)C2 [Example 116239] | 20
CC(C)n1ccc2cc(N3Cc4ccc(Br)cc4C3=O)ccc21 [Example 125270] | 16
COc1ccc2c(c1)C(=O)N(c1ccc3nccn3c1)C2 [Example 120955] | 1590
COc1ccc2c(c1)C(=O)N(c1ccc3c(cnn3C)c1)C2 [Example 120600] | 59
COc1ccc2c(c1)C(=O)N(c1cnc3c(ccn3C)c1)C2 [Example 121079] | 42
COc1ccc2c(c1)C(=O)N(c1ccc3sccc3c1)C2 [Example 119519] | 31
CC(=O)Nc1cccc2c1C(=O)N(c1ccc3c(ccn3C)c1)C2 [Example 121081] | 177
COc1ccc2c(c1)C(=O)N(c1ccc3cc(C)[nH]c3c1)C2 [Example 125097] | 50
COc1ccc2c(c1)C(=O)N(c1ccc3nc(N(C)C)ccc3c1)C2 [Example 123332] | 207
Cn1ccc2cc(N3Cc4ccc(NC=O)cc4C3=O)ccc21 [Example 125096] | 44
Cn1ccc2cc(N3Cc4cc(Br)ccc4C3=O)ccc21 [Example 120592] | 112
Cn1ccc2cc(N3Cc4ccc(F)cc4C3=O)ccc21 [Example 121925] | 193
CCOc1ccc2c(c1)C(=O)N(c1ccc3ccn(C)c3c1)C2 [Example 124167] | 69
CCCc1ccc2c(c1)C(=O)N(c1ccc3ccn(C)c3c1)C2 [Example 124428] | 151
COc1cc2c(cc1OC)C(=O)N(c1ccc3c(c1)cc(C)n3C)C2 [Example 124036] | 1640
COc1ccc2c(c1)C(=O)N(c1ccc3ccc(C)nc3c1)C2 [Example 124430] | 46
O=C1c2cc(Br)ccc2CN1c1ccc2sccc2c1 [Example 122558] | 94
COc1ccc2c(c1)C(=O)N(c1ccc3scc(Br)c3c1)C2 [Example 122434] | 378
O=C1c2ccccc2CN1c1ccc(Br)cn1 [Example 112648] | 456
Cc1cccc2c1CN(c1ccc3ccn(C)c3c1)C2=O [Example 120953] | 1160
Cc1cc2cc(N3Cc4ccc(OC(F)F)cc4C3=O)ccc2n1C [Example 123204] | 374

Further molecules by falling EC50, results first:

EC50 [nM] | Structure (SMILES)
7120 | COc1ccc2c(c1)C(=O)N(c1ccc3nc(N(C)C)ncc3c1)C2 [Example 122039]
2770 | COc1ccc2c(c1)C(=O)N(c1ccc3ccn(CC#N)c3c1)C2 [Example 120603]
1070 | Cn1ccc2ccc(N3Cc4ccc(-c5cncnc5)cc4C3=O)cc21 [Example 122433]
593 | COc1ccc2c(c1)CN(c1ccc3c(ccn3C)c1)C2 [Example 122183]
415 | COc1ccc2c(c1)C(=O)N(c1ccc3cnn(C)c3c1)C2 [Example 120604]
226 | O=C1c2cc(OC(F)F)ccc2CN1c1ccc2ccsc2c1 [Example 121512]
207 | Cc1cc2cc(N3Cc4ccc(Br)cc4C3=O)ccc2n1C [Example 122818]
113 | COc1ccc2c(c1)CN(c1ccc3ccsc3c1)C2=O [Example 121511]
70 | COc1ccc2c(c1)C(=O)N(c1ccc3nccnc3c1)C2 [Example 120791]
68 | COCCn1ccc2cc(N3Cc4ccc(OC)cc4C3=O)ccc21 [Example 119659]

same assay, conditions: fold-increase of luciferase over baseline reading of transformed cells without any test compound

Structure (SMILES) | Fold Increase
Cn1ccc2cc(N3Cc4ccc(Cl)cc4C3=O)ccc21 [Example 120599] | 1.407
Cc1cc2cc(N3Cc4ccc(Br)cc4C3=O)ccc2n1C [Example 122818] | 1.551
COc1ccc2c(c1)C(=O)N(c1ccc3nccnc3c1)C2 [Example 120791] | 1.372
COc1ccc2c(c1)C(=O)N(c1ccc3cnn(C)c3c1)C2 [Example 120604] | 1.441
COc1ccc2c(c1)C(=O)N(c1ccc3c(c1)N(C)CCO3)C2 [Example 119867] | 1.495
COCCn1ccc2cc(N3Cc4ccc(OC)cc4C3=O)ccc21 [Example 119659] | 1.405
COc1ccc2c(c1)C(=O)N(c1ccc3c(c1)OCCO3)C2 [Example 116239] | 1.228
CC(C)n1ccc2cc(N3Cc4ccc(Br)cc4C3=O)ccc21 [Example 125270] | 1.446
COc1ccc2c(c1)C(=O)N(c1ccc3nccn3c1)C2 [Example 120955] | 1.265
COc1ccc2c(c1)C(=O)N(c1ccc3c(cnn3C)c1)C2 [Example 120600] | 1.312
COc1ccc2c(c1)C(=O)N(c1cnc3c(ccn3C)c1)C2 [Example 121079] | 1.385
COc1ccc2c(c1)CN(c1ccc3c(ccn3C)c1)C2 [Example 122183] | 1.518
Cn1ccc2ccc(N3Cc4ccc(-c5cncnc5)cc4C3=O)cc21 [Example 122433] | 1.333
COc1ccc2c(c1)C(=O)N(c1ccc3sccc3c1)C2 [Example 119519] | 1.666
CC(=O)Nc1cccc2c1C(=O)N(c1ccc3c(ccn3C)c1)C2 [Example 121081] | 1.581
COc1ccc2c(c1)C(=O)N(c1ccc3cc(C)[nH]c3c1)C2 [Example 125097] | 1.347
COc1ccc2c(c1)C(=O)N(c1ccc3nc(N(C)C)ccc3c1)C2 [Example 123332] | 1.272

Structure (SMILES) | Fold Increase
Cn1ccc2cc(N3Cc4ccc(NC=O)cc4C3=O)ccc21 [Example 125096] | 1.371
COc1ccc2c(c1)C(=O)N(c1ccc3nc(N(C)C)ncc3c1)C2 [Example 122039] | 1.459
Cn1ccc2cc(N3Cc4cc(Br)ccc4C3=O)ccc21 [Example 120592] | 1.51
COc1ccc2c(c1)CN(c1ccc3ccsc3c1)C2=O [Example 121511] | 1.808
Cn1ccc2cc(N3Cc4ccc(F)cc4C3=O)ccc21 [Example 121925] | 1.347
COc1ccc2c(c1)C(=O)N(c1ccc3ccn(CC#N)c3c1)C2 [Example 120603] | 1.199
CCOc1ccc2c(c1)C(=O)N(c1ccc3ccn(C)c3c1)C2 [Example 124167] | 1.759
CCCc1ccc2c(c1)C(=O)N(c1ccc3ccn(C)c3c1)C2 [Example 124428] | 1.692
COc1cc2c(cc1OC)C(=O)N(c1ccc3c(c1)cc(C)n3C)C2 [Example 124036] | 1.34
COc1ccc2c(c1)C(=O)N(c1ccc3ccc(C)nc3c1)C2 [Example 124430] | 1.411
O=C1c2cc(Br)ccc2CN1c1ccc2sccc2c1 [Example 122558] | 1.469
COc1ccc2c(c1)C(=O)N(c1ccc3scc(Br)c3c1)C2 [Example 122434] | 1.718
O=C1c2ccccc2CN1c1ccc(Br)cn1 [Example 112648] | 1.264
Cc1cccc2c1CN(c1ccc3ccn(C)c3c1)C2=O [Example 120953] | 1.495
O=C1c2cc(OC(F)F)ccc2CN1c1ccc2ccsc2c1 [Example 121512] | 1.766
Cc1cc2cc(N3Cc4ccc(OC(F)F)cc4C3=O)ccc2n1C [Example 123204] | 1.361

test system: translational stop codon read-through, human SMN2 open reading frame-luciferase; test: Translational read-through luciferase reporter assay (luciferase preceded by the open reading frame of the human SMN2 gene); type: cell-based; settings: not given
From the text: This assay was similar in design to that described in WO 01/44516 A2. This was a cell-based luciferase reporter assay designed to detect translational read-through via insertion of a translational stop codon within the coding sequence that includes luciferase. In the presence of compounds that promote read-through of translational stop codons, active luciferase was produced and detected via chemiluminescence. Compounds of the invention typically were active in three versions of this assay: luciferase reporter containing a UGA stop codon, luciferase reporter containing a UAG stop codon, which is the first stop codon downstream of the improper splice junction between exons 6 and 8 in the human SMN2 transcript, and luciferase preceded by the open reading frame of the human SMN2 gene.

Structure (SMILES) | EC50 [nM] | maximal fold induction
Cn1ccc2cc(N3Cc4ccc(Cl)cc4C3=O)ccc21 [Example 120599] | 1890 | 1.88
COc1ccc2c(c1)C(=O)N(c1ccc3c(c1)N(C)CCO3)C2 [Example 119867] | 676 | 2.04
COc1ccc2c(c1)C(=O)N(c1ccc3c(c1)OCCO3)C2 [Example 116239] | 421 | 2.02
CC(C)n1ccc2cc(N3Cc4ccc(Br)cc4C3=O)ccc21 [Example 125270] | – | 1.19
COc1ccc2c(c1)C(=O)N(c1ccc3nccn3c1)C2 [Example 120955] | 14100 | 1.66
COc1ccc2c(c1)C(=O)N(c1ccc3c(cnn3C)c1)C2 [Example 120600] | 4890 | 1.83

More lines, main results first:

EC50 [nM] | Structure (SMILES) | maximal fold induction
7910 | COc1ccc2c(c1)C(=O)N(c1ccc3cnn(C)c3c1)C2 [Example 120604] | 1.65
12800 | Cc1cc2cc(N3Cc4ccc(Br)cc4C3=O)ccc2n1C [Example 122818] | 1.81
641 | COc1ccc2c(c1)C(=O)N(c1ccc3nccnc3c1)C2 [Example 120791] | 1.91
752 | COCCn1ccc2cc(N3Cc4ccc(OC)cc4C3=O)ccc21 [Example 119659] | 1.38
